Laboratory results reported in patent US11111270B2, “Inhibitor of apoptosis protein (IAP) antagonists” (Sanford Burnham Prebys Medical Discovery Institute, priority 2012, dated 2021).

Assays:
XIAP BIR1/2 = XIAP BIR1/2 (Homo sapiens, UniProt P98170); experiment: XIAP BIR1/2 Ki; format: binding
XIAP BIR3 = XIAP BIR3 (Homo sapiens (Human), UniProt P98170); experiment: XIAP BIR3 Ki; format: binding
ML-IAP = ML-IAP (Homo sapiens (Human), UniProt Q96CA5); experiment: ML-IAP Ki; format: binding
MDA-MB-231 cells = experiment: MDA-MB-231 cell survival (Cell Titer Glo); format: cell-based
Method: (§1) 5000 PPC-1 cells were plated and grown overnight. Compounds were plated and 4 hrs later, TRAIL was added to half of the plate while RPMI was added to the other half of the plate as a control. Plates were return to the incubator for 24 hrs. Plates were removed from the incubator and placed on the bench for 30 min and then 25 uL of Cell Titer Glo were added per well. Plates were placed on a rocker and then read on a luminometer. 5000 MDA-MB-231 cells were plated per well. Compound was added and 4 hrs later, TRAIL was added at 5 ng/mL; RPMI was added for a minus TRAIL control. Plates were incubated an additional 24 hrs, removed to the bench for 30 min, and then 25 uL of cell titer glo was added per well. Plates were placed on a rocker and read on a luminometer. Data were fit using PRISM.

PPC-1 cells [1] = experiment: PPC-1 cell survival with TRAIL (Cell Titer Glo); format: cell-based
Method: as §1

PPC-1 cells [2] = experiment: PPC-1 cell survival with TNFα; format: cell-based
Method: as §1, with “Compounds were plated and 4 hrs later, TRAIL was added to half of the plate while RPMI was added to the other half of the plate as a control.” left out

Chain of XIAP BIR3 (P98170 241-356): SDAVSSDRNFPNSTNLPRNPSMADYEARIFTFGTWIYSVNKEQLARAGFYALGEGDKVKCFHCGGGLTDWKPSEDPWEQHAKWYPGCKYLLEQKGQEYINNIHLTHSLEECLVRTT
Chain of ML-IAP (Q96CA5 whole entry, species assumed): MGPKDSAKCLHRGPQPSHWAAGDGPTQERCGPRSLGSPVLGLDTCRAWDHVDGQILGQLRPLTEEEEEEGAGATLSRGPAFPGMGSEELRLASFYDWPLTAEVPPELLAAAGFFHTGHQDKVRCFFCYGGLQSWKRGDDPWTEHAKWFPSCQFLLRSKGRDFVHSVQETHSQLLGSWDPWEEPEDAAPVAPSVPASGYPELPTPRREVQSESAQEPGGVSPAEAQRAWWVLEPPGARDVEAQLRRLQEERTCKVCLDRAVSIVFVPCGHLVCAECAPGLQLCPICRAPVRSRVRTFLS
Chain of XIAP BIR1/2 (P98170 whole entry, looked up): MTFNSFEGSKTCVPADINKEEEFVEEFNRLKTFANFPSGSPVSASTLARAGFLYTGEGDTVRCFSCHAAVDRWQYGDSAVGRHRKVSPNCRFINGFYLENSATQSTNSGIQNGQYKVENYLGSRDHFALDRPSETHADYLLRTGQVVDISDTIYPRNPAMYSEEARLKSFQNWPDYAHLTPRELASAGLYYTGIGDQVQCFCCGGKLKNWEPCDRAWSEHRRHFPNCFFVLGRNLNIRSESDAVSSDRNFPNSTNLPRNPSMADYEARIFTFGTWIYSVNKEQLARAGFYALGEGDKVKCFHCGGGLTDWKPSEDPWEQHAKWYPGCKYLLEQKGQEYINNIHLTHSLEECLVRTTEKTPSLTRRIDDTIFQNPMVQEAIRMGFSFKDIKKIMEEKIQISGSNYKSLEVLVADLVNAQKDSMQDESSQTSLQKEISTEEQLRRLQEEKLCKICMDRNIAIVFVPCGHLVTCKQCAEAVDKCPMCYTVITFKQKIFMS

Structure (SMILES) | Ki (XIAP BIR1/2; Table B-1) [µM] | Ki (XIAP BIR3; Table B-1) [µM] | Ki (ML-IAP; Table B-1) [µM] | other results
CN[C@@H](C)C(=O)N[C@H]1CCCNC2CCC(C(=O)Nc3cccc4ccccc34)N2C1=O (stereo partly shown) [Product 17] | < 25 | < 25 |  | 
CN[C@@H](C)C(=O)N[C@H]1CCCN(C(C)=O)C2CCC(C(=O)N[C@@H]3CCCc4ccccc43)N2C1=O (stereo partly shown) [Product 20] | > 50 | < 25 |  | 
CN[C@@H](C)C(=O)N[C@H]1CCO[C@H]2CC[C@@H](C(=O)Nc3cccc4ccccc34)N2C1=O [Product 25] | < 25 | < 25 |  | 
CN[C@@H](C)C(=O)N[C@H]1CCO[C@H]2CC(C)(C)[C@@H](C(=O)N[C@@H]3CCCc4ccccc43)N2C1=O [Product 26] | < 25 | < 25 | < 25 | MDA-MB-231 LD50 (MDA-MB-231 cells): A (A = ≤ 25 micromolar); PPC-1 (TRAIL) LD50 (PPC-1 cells [1]): A (A = ≤ 25 micromolar); PPC-1 (TNFα) LD50 (PPC-1 cells [2]): A (A = ≤ 25 micromolar)
CN[C@@H](C)C(=O)N[C@H]1Cc2c([nH]c3ccccc23)[C@H]2CCC(C(=O)N[C@@H]3CCCc4ccccc43)N2C1=O (stereo partly shown) [Product 30] | > 50 | 25 to 50 |  | 
CN[C@@H](C)C(=O)N[C@H]1CCO[C@H]2CC[C@@H](C(=O)N[C@@H]3CCOc4ccccc43)N2C1=O [Product 32] | > 50 | < 25 | < 25 | MDA-MB-231 LD50 (MDA-MB-231 cells): A (A = ≤ 25 micromolar); PPC-1 (TRAIL) LD50 (PPC-1 cells [1]): A (A = ≤ 25 micromolar); PPC-1 (TNFα) LD50 (PPC-1 cells [2]): A (A = ≤ 25 micromolar)
CN[C@@H](C)C(=O)N[C@H]1CCO[C@H]2CCC(C(=O)N[C@@H]3CCCc4ccccc43)N2C1=O (stereo partly shown) [Product 12] | > 50 | < 25 | < 25 | MDA-MB-231 LD50 (MDA-MB-231 cells): A (A = ≤ 25 micromolar); PPC-1 (TRAIL) LD50 (PPC-1 cells [1]): A (A = ≤ 25 micromolar); PPC-1 (TNFα) LD50 (PPC-1 cells [2]): A (A = ≤ 25 micromolar)
CC(=O)N(C)[C@@H](C)C(=O)N[C@H]1CCCN(C(C)=O)[C@H]2CCC(C(=O)Nc3cccc4ccccc34)N2C1=O (stereo partly shown) [Product 18] | > 50 |  |  | 
CN[C@@H](C)C(=O)N[C@H]1CCCNC2CCC(C(=O)N[C@@H]3CCCc4ccccc43)N2C1=O (stereo partly shown) [Product 16] |  | < 25 |  | 
CN[C@@H](C)C(=O)N[C@H]1CCO[C@H]2CC3(CC=CC3)C(C(=O)N[C@@H]3CCCc4ccccc43)N2C1=O (stereo partly shown) [Product 42] | < 25 | < 25 | < 25 | 
CN[C@@H](C)C(=O)N[C@H]1CCS[C@H]2CC[C@H](C(=O)N[C@@H]3CCCc4ccccc43)N2C1=O [Product 36] | > 50 | < 25 | < 25 | 
CN[C@@H](C)C(=O)N[C@@H]1C(=O)N2C(C(=O)NC(c3ccccc3)c3ccccc3)CC[C@@H]2O[C@@H]1C (stereo partly shown) [Product 15] | > 50 |  |  | 
CN[C@@H](C)C(=O)N[C@H]1CO[C@H]2CCC(C(=O)NC3CCCc4ccccc43)N2C1=O (stereo partly shown) [Product 9] | > 50 | < 25 |  | 
CN[C@@H](C)C(=O)NC1CCO[C@H]2CC[C@H](C(=O)n3ccc4ccccc43)N2C1=O (stereo partly shown) [Product 22] | > 50 | 25 to 50 |  | 
CN[C@@H](C)C(=O)N[C@@H]1C(=O)N2C(C(=O)NC3CCCc4ccccc43)CC[C@@H]2O[C@@H]1C (stereo partly shown) [Product 10] | > 50 | < 25 | < 25 | 
CN[C@@H](C)C(=O)N[C@H]1Cc2ccc(O)cc2[C@H]2CC(C)(C)C(C(=O)N[C@@H]3CCCc4ccccc43)N2C1=O (stereo partly shown) [Product 45] | < 25 | < 25 |  | 
CN[C@@H](C)C(=O)N[C@H]1CCS[C@H]2CCC(C(=O)N[C@@H]3CCCc4ccccc43)N2C1=O (stereo partly shown) [Product 24] | > 50 | < 25 | < 25 | MDA-MB-231 LD50 (MDA-MB-231 cells): A (A = ≤ 25 micromolar); PPC-1 (TRAIL) LD50 (PPC-1 cells [1]): A (A = ≤ 25 micromolar); PPC-1 (TNFα) LD50 (PPC-1 cells [2]): A (A = ≤ 25 micromolar)
CN[C@@H](C)C(=O)N[C@H]1CCN[C@H]2CCC(C(=O)N[C@@H]3CCCc4ccccc43)N2C1=O (stereo partly shown) [Product 28] | > 50 |  |  | 
CN[C@@H](C)C(=O)N[C@H]1CCS[C@H]2CCCC(C(=O)N[C@@H]3CCCc4ccccc43)N2C1=O (stereo partly shown) [Product 41] | < 25 | < 25 |  | 
CN[C@@H](C)C(=O)N[C@H]1CCO[C@H]2CC[C@H](C(=O)N[C@@H]3CCOc4ccccc43)N2C1=O [Product 39] | > 50 |  |  | 
CN[C@@H](C)C(=O)N[C@H]1CCS(=O)(=O)[C@H]2CC[C@H](C(=O)N[C@@H]3CCCc4ccccc43)N2C1=O [Product 38] | > 50 |  |  | 

Structure (SMILES) | Ki (XIAP BIR1/2; Table B-1) [µM] | Ki (XIAP BIR3; Table B-1) [µM] | Ki (ML-IAP; Table B-1) [µM] | other results
CN[C@@H](C)C(=O)NC1CCO[C@H]2CC[C@@H](C(=O)n3ccc4ccccc43)N2C1=O (stereo partly shown) [Product 23] | > 50 | 25 to 50 |  | 
CN[C@@H](C)C(=O)N[C@H]1CCN[C@H]2CCC(C(=O)N[C@@H]3CCCc4ccccc43)N2C1=O (stereo partly shown) [Product 29] |  | > 50 |  | 
CN[C@@H](C)C(=O)NC1CCO[C@H]2CCC(C(=O)Nc3cccc4ccccc34)N2C1=O (stereo partly shown) [Product 13] | < 25 | < 25 |  | 
CN[C@@H](C)C(=O)N[C@H]1CCO[C@H]2c3ccccc3C(C(=O)N[C@@H]3CCCc4ccccc43)N2C1=O (stereo partly shown) [Product 17a] |  |  |  | Ki (XIAP BIR1/2; Table 2-2): > 50 µM; Ki (XIAP BIR3; Table 2-2): < 25 µM; Ki (ML-IAP; Table 2-2): < 25 µM
CN[C@@H](C)C(=O)N[C@H]1CCO[C@H]2CC(C)(C)C(C(=O)Nc3ccccc3SSc3ccccc3NC(=O)C3N4C(=O)[C@@H](NC(=O)[C@H](C)NC)CCO[C@H]4CC3(C)C)N2C1=O (stereo partly shown) [Product 40] | < 25 | < 25 |  | 
CN[C@@H](C)C(=O)N[C@H]1CCO[C@H]2CC(C)(C)C(C(=O)N[C@@H]3CCCc4ccccc43)N2C1=O (stereo partly shown) [Product 17b] |  |  |  | Ki (XIAP BIR1/2; Table 2-2): < 25 µM; Ki (XIAP BIR3; Table 2-2): < 25 µM; Ki (ML-IAP; Table 2-2): < 25 µM
CN[C@@H](C)C(=O)N[C@H]1CCS(=O)(=O)[C@H]2CC[C@@H](C(=O)N[C@@H]3CCCc4ccccc43)N2C1=O [Product 37] | > 50 | < 25 |  | 
CN[C@@H](C)C(=O)N[C@H]1CCS[C@H]2CC[C@@H](C(=O)N[C@@H]3CCCc4ccccc43)N2C1=O [Product 34] | > 50 | < 25 | < 25 | PPC-1 (TRAIL) LD50 (PPC-1 cells [1]): A (A = ≤ 25 micromolar); PPC-1 (TNFα) LD50 (PPC-1 cells [2]): A (A = ≤ 25 micromolar)
CN[C@@H](C)C(=O)N[C@H]1CCS[C@H]2CC(C)(C)C(C(=O)N[C@@H]3CCCc4ccccc43)N2C1=O (stereo partly shown) [Product 35] | < 25 | < 25 | < 25 | PPC-1 (TRAIL) LD50 (PPC-1 cells [1]): A (A = ≤ 25 micromolar); PPC-1 (TNFα) LD50 (PPC-1 cells [2]): A (A = ≤ 25 micromolar)
CN[C@@H](C)C(=O)N[C@H]1CO[C@H]2CCC(C(=O)Nc3ccc(OC)cc3)N2C1=O (stereo partly shown) [Product 3] | > 50 |  |  | 
CN[C@@H](C)C(=O)N[C@@H]1C(=O)N2C(C(=O)Nc3cccc4ccccc34)CC[C@@H]2O[C@@H]1C (stereo partly shown) [Product 11] | > 50 |  |  | 
CN[C@@H](C)C(=O)N[C@H]1CCS[C@H]2CC(C)(C)C(C(=O)N[C@@H]3CCCc4ccccc43)N2C1=O (stereo partly shown) [Product 17c] |  |  |  | Ki (XIAP BIR1/2; Table 2-2): < 25 µM; Ki (XIAP BIR3; Table 2-2): < 25 µM; Ki (ML-IAP; Table 2-2): < 25 µM
CN[C@@H](C)C(=O)N[C@H]1Cc2c([nH]c3ccccc23)[C@H]2CCC(C(=O)N[C@@H]3CCCc4ccccc43)N2C1=O (stereo partly shown) [Product 31] | < 25 | < 25 |  | 
CN[C@@H](C)C(=O)N[C@H]1CO[C@H]2CCC(C(=O)NCc3ccccc3)N2C1=O (stereo partly shown) [Product 5] | > 50 |  |  | 
CN[C@@H](C)C(=O)N[C@H]1CCO[C@H]2CC3(CCCC3)C(C(=O)N[C@@H]3CCCc4ccccc43)N2C1=O (stereo partly shown) [Product 43] | < 25 | < 25 |  | 
CN[C@@H](C)C(=O)N[C@H]1CO[C@H]2CCC(C(=O)Nc3ccc(Cl)cc3)N2C1=O (stereo partly shown) [Product 8] | > 50 |  |  | 
CN[C@@H](C)C(=O)N[C@H]1CCO[C@H]2CCC(C(=O)NC(c3ccccc3)c3ccccc3)N2C1=O (stereo partly shown) [Product 14] | > 50 | < 25 | < 25 | 
CN[C@@H](C)C(=O)N[C@H]1CCO[C@H]2c3ccccc3C(C(=O)N[C@@H]3CCCc4ccccc43)N2C1=O (stereo partly shown) [Product 27] | > 50 | < 25 | < 25 | PPC-1 (TRAIL) LD50 (PPC-1 cells [1]): A (A = ≤ 25 micromolar); PPC-1 (TNFα) LD50 (PPC-1 cells [2]): A (A = ≤ 25 micromolar)
CNC(C)C(=O)N[C@H]1CO[C@H]2CCC(C(=O)Nc3ccc(OC)cc3)N2C1=O (stereo partly shown) [Product 4] | > 50 | 25 to 50 |  | 
CN[C@@H](C)C(=O)N[C@H]1CCO[C@H]2CC[C@@H](C(=O)N[C@@H]3CCCc4ccccc43)N2C1=O [Product 33] | > 50 | < 25 | < 25 | PPC-1 (TRAIL) LD50 (PPC-1 cells [1]): A (A = ≤ 25 micromolar); PPC-1 (TNFα) LD50 (PPC-1 cells [2]): A (A = ≤ 25 micromolar)
CN[C@@H](C)C(=O)N[C@H]1CC(=O)N[C@H]2CC(C)(C)C(C(=O)N[C@@H]3CCCc4ccccc43)N2C1=O (stereo partly shown) [Product 46] | > 50 | < 25 | < 25 | 
